According to patent publication US20240269105A1, “USE OF SGLT-2 INHIBITORS FOR THE PREVENTION AND/OR TREATMENT OF HYPERTENSION IN NON-HUMAN MAMMALS” (BOEHRINGER INGELHEIM VETMEDICA GMBH, priority 2021, published 2024):

Tests used:
[1] = system: human patients suffering from diabetes mellitus type II; details: baseline to week 12; empagliflozin 10 mg and 25 mg groups vs placebo; N=825; 'up to'; cited from earlier work
[2] = system: cats previously diagnosed with high systolic blood pressure; experiment: Clinical field study (Cats): systolic blood pressure; type: in vivo, cat; details: cats (n=5-10), 4 weeks of treatment, open label
Method: (§1) In a clinical field study, the effect of velagliflozin on systolic blood pressure administered to cats (n=5-10) previously diagnosed with high systolic blood pressure, is evaluated over a period of 1 month. Systolic blood pressure measurements are performed in accordance with the ACVIM consensus statement (Ref. 3). Systolic blood pressure is measured before treatment start and during weekly consecutive visits (4 weeks of treatment). The study is an open label study (unmasked). The data of this field trial confirm an average reduction of systolic blood pressure of about 5-10 mmHg.

[3] = system: dogs previously diagnosed with high systolic blood pressure; experiment: Clinical field study (Dogs): systolic blood pressure; type: in vivo, dog; details: dogs (n=5-10), 4 weeks of treatment, open label
Method: as §1, with “dogs” for “cats”

Compound | placebo-subtracted mean difference of mean 24-hour systolic BP [1] | average reduction of systolic blood pressure [2] | average reduction of systolic blood pressure [3]
OC[C@H]1O[C@@H](c2ccc(Cl)c(Cc3ccc(O[C@H]4CCOC4)cc3)c2)[C@H](O)[C@@H](O)[C@@H]1O [empagliflozin, Empagliflozin] | up to −4.16 mmHg | – | –
N#Cc1ccc([C@@H]2O[C@H](CO)[C@@H](O)[C@H](O)[C@H]2O)cc1Cc1ccc(C2CC2)cc1 [velagliflozin, Velagliflozin] | – | 5-10 mmHg | 5-10 mmHg
